Assay results from patent US20240376097A1, “BCL-2 Inhibitor” (BeiGene Ltd., priority 2020, published 2024).
Where two headings read alike, the source gives them in different places.

Experiments:
[1] = tested on: BCL-2 G101V knock-in cell line H96 (derive from RS4;11); assay: Bcl 2-G101V Knock-In RS4;11 Cell Proliferation Assay; type: cell-based; conditions: Homo sapiens, RS4;11 Bcl-2 G101V knock-in clone H96, 48 hrs, CellTiter-GLO, read-out: Cellular proliferation assay (IC50, nM) RS4
Summary of the method: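 H96, a CRISPR-generated RS4;11 clone carrying BCL2-G101V knock-in (WES/RNA-seq validated), seeded 50,000 per well and exposed 48 h at 37 °C to 10-point dilutions topping at 1 or 10 μM. Viability by CellTiter-Glo luminescence; mean IC50.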

[2] = tested on: RS4;11 (BCL-2 dependent acute lymphoblastic leukemia cell line); assay: RS4;11 Cell Proliferation Assay; type: cell-based; conditions: Homo sapiens, RS4-11, RS4;11 cells, read-out: Cellular proliferation assay (IC50, nM) RS4
Summary of the method: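 RS4;11 cells, 50,000 per well in RPMI-1640 with 10% FBS, treated 48 h at 37 °C with a 10-point dilution series topping at 1 μM. Viability read by CellTiter-Glo ATP luminescence; mean IC50 reported.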

[3] = molecular target: Recombinant human Bcl-2 protein (Homo sapiens (Human), UniProt P10415); assay: Bcl-2 TR-FRET Assay; type: binding
Summary of the method: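 Compounds were pre-incubated with 0.05 nM recombinant Bcl-2 for 0.5 h at room temperature in potassium phosphate buffer, pH 7.5. FITC-Bak peptide (0.5 nM) and Tb-cryptate antibody were then added for 1 h. Percent inhibition from TR-FRET signals gave IC50 values.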

[4] = molecular target: recombinant human Bcl-2-G101V protein (Homo sapiens (Human), UniProt P10415, G101V); assay: Bcl-2-G101V TR-FRET Assay; type: binding; conditions: Bcl-2 G101V mutant, TR-FRET; read-out: Biochemical assay (IC50, nM) Bcl-2 G101V
Summary of the method: (§1)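 Compounds were titrated at increasing concentrations against the Bcl-2-G101V–ligand interaction. TR-FRET signals were then read (ex 337 nm; em 490/520 nm). Percent inhibition was derived from the 490-to-520 nm ratio, and IC50 from a four-parameter logistic equation.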

[5] = tested on: recombinant human Bcl-2-G101V protein; assay: Bcl-2-G101V TR-FRET Assay; type: binding; conditions: ratio of biochemical IC50 Bcl-2 G101V / Bcl-2 WT
Summary of the method: as §1

[6] = molecular target: recombinant human Bcl-2 D103Y protein (Homo sapiens (Human), UniProt P10415, D103Y); assay: Bcl-2-D103Y Biochemical Assay (TR-FRET); type: binding; conditions: for IC50: TR-FRET, FITC labeled Bak peptide; for Ratio of Bcl-2 D103Y/Bcl-2 WT: ratio of IC50
Summary of the method: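 Recombinant human Bcl-2 D103Y binding to its ligand measured by TR-FRET (ex 337 nm, em 490/520 nm) with increasing compound concentrations. Percent inhibition from the 490/520 nm ratio; IC50 from four-parameter logistic fit.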

[7] = Bcl-2 wild type, TR-FRET, read-out: Biochemical assay (IC50, nM) Bcl-2 WT
[8] = wild type Bcl-2, unit inferred, read-out: Bcl-2 WT

SMILES	IC50 [1] [nM]	IC50 [2] [nM]	IC50 [3, 7] [nM]	IC50 [3, 8] [nM]	IC50 [4] [nM]	Ratio of Bcl-2 G101V/WT [5]	IC50 [6] [nM]	Ratio of Bcl-2 D103Y/Bcl-2 WT [6]
COc1ccc(CN2CCN(C3CC4(CCN(c5ccc(C(=O)NS(=O)(=O)c6ccc(NC[C@H]7CC[C@](C)(O)CC7)c([N+](=O)[O-])c6)c(Oc6cnc7[nH]ccc7c6)c5)CC4)C3)C(c3ccccc3C(C)C)C2)c2c1OCCO2 (stereo partly drawn) [Example 203, 2-((1H-pyrrolo[2,3-b]pyridin-5-yl)oxy)-N-((4-((((1r,4r)-4-hydroxy-4-methylcyclohexyl)methyl)amino)-3-nitrophenyl)sulfonyl)-4-(2-(2-(2-isopropylphenyl)-4-((8-methoxy-2,3-dihydrobenzo[b][1,4]dioxin-5-yl)methyl)piperazin-1-yl)-7-azaspiro[3.5]nonan-7-yl) benzamide]	0.9	0.38	0.052	0.052	0.17	3.2	0.083	1.6
COc1cc(CN2CCN(C3CC4(C3)CN(c3ccc(C(=O)NS(=O)(=O)c5ccc(NC[C@H]6CC[C@](C)(O)CC6)c([N+](=O)[O-])c5)c(Oc5cnc6[nH]cc(F)c6c5)c3)C4)[C@H](c3ccccc3C(C)C)C2)cnc1OC [Example 205, 4-(6-((R)-4-((5,6-dimethoxypyridin-3-yl)methyl)-2-(2-isopropylphenyl)piperazin-1-yl)-2-azaspiro[3.3]heptan-2-yl)-2-((3-fluoro-1H-pyrrolo[2,3-b]pyridin-5-yl)oxy)-N-((4-((((1r,4r)-4-hydroxy-4-methylcyclohexyl)methyl)amino)-3-nitrophenyl)sulfonyl) benzamide]	0.55	0.39	0.034	0.034	0.07	2	0.047	1.4
COc1ccc(CN2CCN(C3CC4(C3)CN(c3ccc(C(=O)NS(=O)(=O)c5ccc(NC[C@H]6CC[C@](C)(O)CC6)c([N+](=O)[O-])c5)c(Oc5cnc6[nH]cc(F)c6c5)c3)C4)[C@H](c3ccccc3C(C)C)C2)cn1 [Example 215, 2-((3-fluoro-1H-pyrrolo[2,3-b]pyridin-5-yl)oxy)-N-((4-((((1r,4r)-4-hydroxy-4-methylcyclohexyl)methyl)amino)-3-nitrophenyl)sulfonyl)-4-(6-((R)-2-(2-isopropylphenyl)-4-((6-methoxypyridin-3-yl)methyl)piperazin-1-yl)-2-azaspiro[3.3]heptan-2-yl)benzamide]	0.29	0.11	0.057	0.057	0.14	2.5	0.062	1.1
COc1ccc(CN2CCN(C3CC4(CCN(c5ccc(C(=O)NS(=O)(=O)c6ccc(NC[C@H]7CC[C@](C)(O)CC7)c([N+](=O)[O-])c6)c(Oc6cnc7[nH]cc(F)c7c6)c5)CC4)C3)[C@H](c3ccccc3C(C)C)C2)cn1 [Example 217, 2-((3-fluoro-1H-pyrrolo[2,3-b]pyridin-5-yl)oxy)-N-((4-((((1r,4r)-4-hydroxy-4-methylcyclohexyl)methyl)amino)-3-nitrophenyl)sulfonyl)-4-(2-((R)-2-(2-isopropylphenyl)-4-((6-methoxypyridin-3-yl)methyl)piperazin-1-yl)-7-azaspiro[3.5]nonan-7-yl)benzamide]	0.41	0.11	0.074	0.074	0.17	2.4	0.1	1.4
[2H]C([2H])([2H])Oc1ccc(CN2CCN(C3CC4(C3)CN(c3ccc(C(=O)NS(=O)(=O)c5ccc(NC[C@H]6CC[C@](C)(O)CC6)c([N+](=O)[O-])c5)c(Oc5cnc6[nH]cc(F)c6c5)c3)C4)[C@H](c3ccccc3C(C)C)C2)cc1 [Example 218, 2-((3-fluoro-1H-pyrrolo[2,3-b]pyridin-5-yl)oxy)-N-((4-((((1r,4r)-4-hydroxy-4-methylcyclohexyl)methyl)amino)-3-nitrophenyl)sulfonyl)-4-(6-((R)-2-(2-isopropylphenyl)-4-(4-(methoxy-d3)benzyl)piperazin-1-yl)-2-azaspiro[3.3]heptan-2-yl) benzamide]	0.29	0.12	0.1	0.1	0.25	2.5	0.11	1.0
COc1ccc(CN2CCN(C3CC4(CCN(c5ccc(C(=O)NS(=O)(=O)c6ccc(NCC7(F)CCC(C)(O)CC7)c([N+](=O)[O-])c6)c(Oc6cnc7[nH]ccc7c6)c5)CC4)C3)[C@H](c3ccccc3C(C)C)C2)cc1 (stereo partly drawn) [Example 225, (R)-2-((1H-pyrrolo[2,3-b]pyridin-5-yl)oxy)-N-((4-(((1-fluoro-4-hydroxy-4-methylcyclohexyl)methyl)amino)-3-nitrophenyl)sulfonyl)-4-(2-(2-(2-isopropylphenyl)-4-(4-methoxybenzyl)piperazin-1-yl)-7-azaspiro[3.5]nonan-7-yl) benzamide]	0.65	0.13	0.092	0.092	0.37	4	0.1	1.1
CC(C)c1ccccc1[C@@H]1CN(Cc2ccc(F)c(F)c2)CCN1C1CC2(C1)CN(c1ccc(C(=O)NS(=O)(=O)c3ccc(NC[C@H]4CC[C@](C)(O)CC4)c([N+](=O)[O-])c3)c(Oc3cnc4[nH]cc(F)c4c3)c1)C2 [Example 229, 4-(6-((R)-4-(3,4-difluorobenzyl)-2-(2-isopropylphenyl)piperazin-1-yl)-2-azaspiro[3.3]heptan-2-yl)-2-((3-fluoro-1H-pyrrolo[2,3-b]pyridin-5-yl)oxy)-N-((4-((((1r,4r)-4-hydroxy-4-methylcyclohexyl)methyl)amino)-3-nitrophenyl)sulfonyl) benzamide]	0.53	0.12	0.38	0.38	0.96	2.5	0.45	1.2
COc1cc(CN2CCN(C3CC4(C3)CN(c3ccc(C(=O)NS(=O)(=O)c5ccc(NC[C@H]6CC[C@](C)(O)CC6)c([N+](=O)[O-])c5)c(Oc5cnc6[nH]cc(F)c6c5)c3)C4)[C@H](c3ccccc3C(C)C)C2)cc(C)c1OC [Example 231, 4-(6-((R)-4-(3,4-dimethoxy-5-methylbenzyl)-2-(2-isopropylphenyl)piperazin-1-yl)-2-azaspiro[3.3]heptan-2-yl)-2-((3-fluoro-1H-pyrrolo[2,3-b]pyridin-5-yl)oxy)-N-((4-((((1r,4r)-4-hydroxy-4-methylcyclohexyl)methyl)amino)-3-nitrophenyl)sulfonyl) benzamide]	0.38	0.12	0.27	0.27	0.35	1.3	0.45	1.7
COc1ccc(CN2CCN(C3CC4(CCN(c5ccc(C(=O)NS(=O)(=O)c6ccc(OCC7CCC(C)(O)CC7)c([N+](=O)[O-])c6)c(Oc6cnc7[nH]ccc7c6)c5)CC4)C3)[C@H](c3ccccc3C(C)C)C2)cc1 (stereo partly drawn) [Example 236, (R)-2-((1H-pyrrolo[2,3-b]pyridin-5-yl)oxy)-N-((4-((4-hydroxy-4-methylcyclohexyl)methoxy)-3-nitrophenyl)sulfonyl)-4-(2-(2-(2-isopropylphenyl)-4-(4-methoxybenzyl)piperazin-1-yl)-7-azaspiro[3.5]nonan-7-yl)benzamide]	0.8	0.16	0.16	0.16	0.56	3.5	0.22	1.3
